Data from US11046691B1 (IDEAYA BIOSCIENCES, INC., priority 2018, dated 2021).

target: hMAT2A (Homo sapiens (Human), UniProt P31153); test: Phosphate Sensor Fluorescence Assay (MAT2A enzyme inhibition); assay type: biochemical; conditions: L-methionine 500 uM, ATP 500 uM, class symbols
How it was run: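 Recombinant MAT2A preincubated 15 min at room temperature with compound, then reacted 1 h at room temperature with 500 uM L-methionine and 500 uM ATP in Tris pH 7.5 buffer containing PNP/7-MEG.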

Sequence of hMAT2A (P31153 whole entry): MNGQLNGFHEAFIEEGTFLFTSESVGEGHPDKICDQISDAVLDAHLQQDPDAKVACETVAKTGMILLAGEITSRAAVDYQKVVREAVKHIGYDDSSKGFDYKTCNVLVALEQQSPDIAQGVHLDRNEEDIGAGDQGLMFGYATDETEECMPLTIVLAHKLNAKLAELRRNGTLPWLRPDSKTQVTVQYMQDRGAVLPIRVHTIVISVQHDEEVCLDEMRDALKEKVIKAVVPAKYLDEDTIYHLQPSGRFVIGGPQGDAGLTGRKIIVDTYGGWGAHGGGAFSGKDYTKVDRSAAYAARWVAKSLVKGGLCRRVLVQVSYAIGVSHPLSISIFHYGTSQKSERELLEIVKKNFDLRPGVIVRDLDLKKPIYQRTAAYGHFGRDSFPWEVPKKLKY

Compound | IC50 [nM]
[2H]C([2H])([2H])Nc1nc(=O)n(-c2ccccc2C)c2nc(C(F)(F)F)ccc12 [Example 272, 4-((methyl-d3)amino)-1-(2-methyl-phenyl)-7-(trifluoromethyl)pyrido[2,3-d]pyrimidin-2(1H)-one] | < 200
CN(C)CCCNc1nc(=O)n(-c2ccccc2Cl)c2nc(C(F)(F)F)ccc12 [Example 266, 4-{[3-(dimethylamino)propyl]amino}-1-(2-ch1orophenyl)-7-(trifluoromethyl)-pyrido[2,3-d]pyrimidin-2(1H)-one] | 1000 to 10000
4-(3,3-difluoropyrrolidin-1-yl)-7- chloro-1-phenylhydroquinazolin-2-one [Example 207] | < 200
O=c1nc(N2CC[C@@H](O)C2)c2ccc(Cl)cc2n1-c1ccc2nccn2c1 [Example 250, 4-((3R)-3-hydroxypyrrolidin-1-yl)-7-chloro-1-(4-hydroimidazo[1,2-a]pyridin-6-yl)-hydroquinazolin-2-one] | 500 to 1000
Cc1ccccc1-n1c(=O)nc(N2CC[C@@H](O)C2)c2ccc(C(F)(F)F)nc21 [Example 183, (R)-4-(3-hydroxypyrrolidin-1-yl)-1-(o-tolyl)-7-(trifluoromethyl)pyrido[2,3-d]-pyrimidin-2(1H)-one] | < 200
O=c1nc(N[C@@H]2C[C@H]2F)c2ccc(OC(F)(F)F)cc2n1-c1ccccc1Cl (atropisomer, axis not shown) [Example 404, 4-[((1R,2R)-2-fluorocyclopropyl)-amino]-1-(2-chlorophenyl)-7-(trifluoromethoxy)hydroquinazolin-2-one] | < 200
CNc1nc(=O)n(-c2cccc3ncsc23)c2nc(C(F)(F)F)ccc12 [Example 381, 1-benzothiazol-7-yl-4-(methylamino)-7-(trifluoromethyl)pyrido[2,3-d]pyrimidin-2(1H)-one] | < 200
O=c1nc(N2CC[C@@H](O)C2)c2ccc(C(F)(F)F)cc2n1-c1ccccc1 [Example 145, 4-((3R)-3-hydroxypyrrolidinyl)-1-phenyl-7-(trifluoromethyl)hydro-quinazolin-2-one] | < 200
CCOC(=O)c1ccc2c(=O)[nH]c(=O)n(-c3ccccc3)c2c1 [Example 213, ethyl 2,4-dioxo-1-phenyl-1,3-dihydro-quinazoline-7-carboxylate] | 1000 to 10000
O=c1nc(N2CCSC2)c2ccc(C(F)(F)F)nc2n1-c1ccccc1 [Example 346, 1-phenyl-4-(1,3-thiazolidin-3-yl)-7-(trifluoromethyl) pyrido[2,3-d]-pyrimidin-2(1H)-one] | < 200
O=c1nc(NCC(F)(F)F)c2ccc(C(F)(F)F)nc2n1-c1ccccc1 [Example 136, 1-phenyl-4-((2,2,2-trifluoroethyl)amino)-7-(trifluoromethyl)pyrido[2,3-d]-pyrimidin-2(1H)-one] | < 200
CNC(=O)c1cccc(-n2c(=O)nc(NC)c3ccc(Cl)cc32)c1 [Example 175] | < 200
CNc1nc(=O)n(-c2ncccc2Cl)c2nc(C(F)(F)F)ccc12 [Example 261, 1-(3-chloro(2-pyridyl))-4-(methyl-amino)-7-(trifluoromethyl)pyrido[2,3-d]-pyrimidin-2(1H)-one] | < 200

The next lines start with the values.

IC50 [nM] | Compound
< 200 | CNc1nc(=O)n(-c2ncccc2C)c2cc(Cl)ccc12 [Example 371]
< 200 | O=c1nc(NCC2COC2)c2ccc(Cl)cc2n1-c1ccccc1 [Example 232, 7-chloro-4-[(oxetan-3-ylmethyl)amino]-1-phenylhydroquinazolin-2-one]
< 200 | CNc1nc(=O)n(-c2ccccc2C)c2cc(C3CC3)ccc12 [Example 352, 7-cyclopropyl-4-(methylamino)-1-(2-methylphenyl)hydroquinazolin-2-one]
< 200 | C=Cc1ccc2c(NC)nc(=O)n(-c3ccccc3)c2c1 [Example 96, 4-(methylamino)-1-phenyl-7-vinylhydro-quinazolin-2-one]
< 200 | O=c1[nH]c(=O)n(-c2cccc3[nH]ncc23)c2cc(Cl)ccc12 [Example 254, 1-(1H-indazol-4-yl)-7-chloro-1,3-dihydroquinazoline-2,4-dione]
< 200 | CNc1nc(=O)n(-c2ccccc2)c2cc(C(F)F)ccc12 [Example 143, 7-(difluoromethyl)-4-(methylamino)-1-phenylhydroquinazolin-2-one]
< 200 | CC(C)Nc1nc(=O)n(-c2ccccc2Cl)c2nc(C(F)(F)F)ccc12 [Example 258, 1-(2-chlorophenyl)-4-[(methylethyl)-amino]-7-(trifluoromethyl)pyrido[2,3-d]-pyrimidin-2(1H)-one]
< 200 | O=c1nc(N2CC[C@H](O)C2)c2ccc(C(F)(F)F)nc2n1-c1ccccc1Cl [Example 181, (S)-1-(2-chlorophenyl)-4-(3-hydroxy-pyrrolidin-1-yl)-7-(trifluoromethyl)-pyrido[2,3-d]pyrimidin-2(1H)-one]
< 200 | Cn1ccc(CNc2nc(=O)n(-c3ccccc3)c3cc(Cl)ccc23)n1 [Example 233, 7-chloro-4-1{[(1-methylpyrazol-3-yl)-methyl]amino}-1-phenylhydro-quinazolin-2-one]
< 200 | NC(=O)CNc1nc(=O)n(-c2ccccc2Cl)c2nc(C(F)(F)F)ccc12 [Example 287, 2-((1-(2-chlorophenyl)-2-oxo-7-(trifluoromethyl)-1,2-dihydropyrido[2,3-d]pyrimidin-4-yl)amino)acetamide]
< 200 | Cc1ccccc1-n1c(=O)nc(N)c2ccc(C(F)(F)F)cc21 [Example 125, 4-amino-1-(2-methylphenyl)-7-(trifluoromethyl)hydroquinazolin-2-one]
< 200 | C[C@H](CO)Nc1nc(=O)n(-c2ccccc2Cl)c2nc(C(F)(F)F)ccc12 (atropisomer, axis not shown) [Example 323, (R)-(1Sa)-(2-chlorophenyl)-4-((1-hydroxypropan-2-yl)amino)-7-(trifluoro-methyl)pyrido-[2,3-d]pyrimidin-2(1H)-one]
< 200 | O=c1nc(N2CC[C@@H](O)C2)c2ccc(C(F)(F)F)nc2n1-c1ccccc1 [Example 170, (R)-4-(3-hydroxypyrrolidin-1-yl)-1-phenyl-7-(trifluoromethyl)pyrido[2,3-d]-pyrimidin-2(1H)-one]
< 200 | CNc1nc(=O)n(-c2cncc(O)c2)c2nc(C(F)(F)F)ccc12 [Example 390, 1-(5-hydroxypyridin-3-yl)-4-(methyl-amino)-7-(trifluoromethyl)pyrido[2,3-d]-pyrimidin-2(1H)-one]
< 200 | Cc1ncccc1-n1c(=O)nc(N2CC[C@@H](O)C2)c2ccc(C(F)(F)F)cc21 [Example 283]
< 200 | COC1CCN(c2nc(=O)n(-c3ccccc3)c3cc(Cl)ccc23)C1 (stereo not shown) [Example 230, 7-chloro-4-(3-methoxypyrrolidin-1-yl)-1-phenylquinazolin-2(1H)-one]
< 200 | O=c1nc(N[C@H]2C[C@@H](O)C2)c2ccc(C(F)(F)F)nc2n1-c1ccccc1Cl [Example 321]
< 200 | COCCCNc1nc(=O)n(-c2ccccc2Cl)c2nc(C(F)(F)F)ccc12 [Example 248, 1-(2-chlorophenyl)-4-[(3-methoxy-propyl)amino]-7-(trifluoromethyl)-pyrido[2,3-d]pyrimidin-2(1H)-one]
< 200 | CNC(=O)C1CN(c2nc(=O)n(-c3ccccc3)c3cc(Cl)ccc23)C1 [Example 204, 1-(7-chloro-2-oxo-1-phenyl-1,2-dihydroquinazolin-4-yl)-N-methyl-azetidine-3-carboxamide]
< 200 | CNc1nc(=O)n(-c2cccc(C#N)c2)c2nc(C(F)(F)F)ccc12 [Example 179, 3-[4-(methylamino)-2-oxo-7-(trifluoro-methyl)pyrido[2,3-d]pyrimidin-1(2H)-yl)benzonitrile]
< 200 | CNc1nc(=O)n(-c2cccc(OC)n2)c2nc(C(F)(F)F)ccc12 [Example 91, 1-(6-methoxypyridin-2-yl)-4-(methylamino)-7-(trifluoromethyl)-pyrido[2,3-d]pyrimidin-2(1H)-one]
< 200 | NC1CCN(c2nc(=O)n(-c3ccccc3)c3cc(Cl)ccc23)C1 (stereo not shown) [Example 201, 4-(3-aminopyrrolidin-1-yl)-7-chloro-1-phenylquinazolin-2(1H)-one]
< 200 | Cc1ncccc1-n1c(=O)nc(N)c2ccc(C(F)(F)F)nc21 [Example 263]
< 200 | CO[C@H]1C[C@@H](Nc2nc(=O)n(-c3ccccc3Cl)c3nc(C(F)(F)F)ccc23)C1 [Example 270, 1-(2-chlorophenyl)-4-(((1s,3s)-3-methoxycyclobutyl)amino)-7-(trifluoro-methyl)pyrido[2,3-d]pyrimidin-2(1H)-one]

same assay, conditions: L-methionine 500 uM, ATP 500 uM, numeric bound

IC50 [nM] | Compound
> 10000 | CNc1nc(=O)n(-c2ccccc2Cl)c2c(Cl)c(C(F)(F)F)ccc12 [Example 342, 8-chloro-1-(2-chlorophenyl)-4-(methylamino)-7-(trifluoromethyl)-hydroquinazolin-2-one]
> 10000 | CNc1nc(=O)n(-c2ccccc2)c2cc(Cl)cc(-n3cccn3)c12 [Example 208, 7-chloro-4-(methylamino)-1-phenyl-5-(1H-pyrazol-1-yl)quinazolin-2(1H)-one]
> 10000 | CN(C)c1nc(=O)n(-c2ccccc2)c2cc(-c3cscn3)ccc12 [Example 228, 4-(dimethylamino)-1-phenyl-7-(1,3-thiazol-4-yl)hydroquinazolin-2-one]
> 10000 | CCC(C)c1ccc2c(NC)nc(=O)n(-c3ccccc3)c2c1 (stereo not shown) [Example 382, 4-(methylamino)-7-(methylpropyl)-1-phenylhydroquinazolin-2-one]
> 10000 | CC(C)(C)OC(=O)N1CC=C(c2cc(Cl)cc3c2c(O)nc(=O)n3-c2ccccc2)C1 [Example 290, tert-butyl 3-(7-chloro-4-hydroxy-2-oxo-1-phenyl-1,2-dihydroquinazolin-5-yl)-2,5-dihydro-1H-pyrrole-1-carboxylate]
> 10000 | O=C1CCN1c1nc(=O)n(-c2ccccc2)c2cc(Cl)ccc12 [Example 206, 7-chloro-4-(2-oxoazetidin-1-yl)-1-phenylhydroquinazolin-2-one]
